Measured values taken from ChEMBL document CHEMBL3507680, “University of Dundee, Gates Library screen for HepG2 cell viability”.

Assay: Human HepG2 cell viability assay in 384 well format
Type: toxicity, cell-based
Parameters: dose 125 nL, time 70.5 hour; cytotoxicity at 70.5 h: concentration not given beside the values
Details: HepG2 cells, read-out: Inhibition

| SMILES | cytotoxicity at 70.5 h [%] |
| --- | --- |
| CS(=O)(=O)N1CCC(C(=O)Nc2nnc(C(F)(F)F)[nH]2)CC1 | -6.85 |
| CC(C(=O)N1CCOCC1)S(=O)(=O)Cc1noc(C(C)(C)C)n1 (centres undefined) | 7.07 |
| CC(NC(=O)c1ccoc1)C(=O)N(C)Cc1cccc(C(F)(F)F)c1 (centres undefined) | 9.42 |
| CC(c1ccco1)N(C(=O)COc1ccc(C#N)cc1)C1CC1 (centres undefined) | -6.31 |
| CC(c1ccco1)N(C(=O)c1cccc(C#N)c1)C1CC1 (centres undefined) | -5.03 |
| CCOc1nnc(CN2CCC(c3nc4ccccc4[nH]3)CC2)s1 | 1.06 |
| CC(c1nc(-c2ccccc2)no1)N1CC(n2cccn2)C1 (centres undefined) | -4.14 |
| CN(C)S(=O)(=O)c1ccc(F)c(NC(=O)COCC2CC2)c1 | -10.8 |
| CC(C)(C)SCC(=O)Nc1cc(-n2nnnc2C2CC2)ccc1F | 10.5 |
| CCOCC(=O)Nc1cc(-n2nnnc2C2CC2)ccc1F | 0.6 |
| Cc1cnn(CC(=O)Nc2cc(-n3nnnc3C3CC3)ccc2F)c1 | -7.79 |
| CCN(CC)S(=O)(=O)NC(=O)c1cc(C)n(-c2ccccc2)n1 | 10.6 |
| CCCS(=O)(=O)NC(=O)c1cc(C)n(-c2ccccc2)n1 | 7.41 |
| CCOc1ccccc1CCNC(=O)NCC(O)c1cccs1 (centres undefined) | -4.36 |
| CCC(CC)c1cc(C(=O)N2CCN(CC(N)=O)CC2)on1 | -6.02 |
| CNS(=O)(=O)c1cc(C(=O)N2CCCCCC2CC(C)C)co1 (centres undefined) | -3.95 |
| CN1CCOC(C(=O)Nc2nnc(Cc3ccc(F)cc3)[nH]2)C1 (centres undefined) | -7.94 |
| CCOC(C)C(=O)Nc1cc(S(=O)(=O)NC2CC2)ccc1F (centres undefined) | 6.35 |
| Cc1nc(CN(C)c2nccc(N(C)C)n2)cs1 | -0.0733 |
| Cc1ccn(Cc2nc(CC(C)C)no2)c(=O)c1 | -6.72 |

| SMILES | cytotoxicity at 70.5 h [%] |
| --- | --- |
| Cc1nc(CSCCC(=O)Nc2cccc(N3CCNC3=O)c2)cs1 | -0.129 |
| O=C(NCc1ccnc(OCC(F)(F)F)c1)NCC1CCOC1 (centres undefined) | -15.8 |
| Cc1cc(-n2c(C)cn(CN(C)Cc3ccccc3)c2=O)no1 | -5.85 |
| COc1ccc(CN(C)Cn2cc(C)n(-c3cc(C)on3)c2=O)cc1 | -12.5 |
| Cc1cc(CN(CCO)Cc2cc(Br)ccc2F)no1 | -17.4 |
| N#Cc1c(CN2CCCC2Cn2cncn2)cn2ccccc12 (centres undefined) | -12.3 |
| COCC(=O)NC(c1ccccc1)c1ccc2c(c1)CCCO2 (centres undefined) | -16.4 |
| O=C(Cn1cnnn1)NC(c1ccccc1)c1ccc2c(c1)CCCO2 (centres undefined) | 24.4 |
| Cc1ccc(C2CSCCN2C(=O)c2ccncc2)cc1 (centres undefined) | 0.0663 |
| CCOCCOC(C)C(=O)Nc1ccc2ccn(CC(=O)NC)c2c1 (centres undefined) | -13.2 |
| O=C(Nc1cccnc1)NC1(c2cccc(F)c2)CC1 | -14.7 |
| CCc1ccccc1CNC(=O)NCc1cnn(C)c1 | -11.8 |
| O=C(NCCO)NC(c1ccccc1)c1ccc2c(c1)CCCO2 (centres undefined) | -12.9 |
| CC1CS(=O)(=O)CCN1CCCc1ccc(Cl)cc1 (centres undefined) | -6.15 |
| O=C(CCCc1ccccn1)Nc1cccc(N2CCCNC2=O)c1 | -0.166 |
| COc1ccccc1C1(CNC(=O)NCc2noc(C)n2)CC1 | 26.4 |
| CS(=O)(=O)c1ccc(NC(=O)NC2(c3cccc(F)c3)CC2)cc1 | -7.54 |
| Cc1ccc(C2CN(CCS(C)(=O)=O)CCO2)c(C)c1 (centres undefined) | -12.5 |
| O=S(=O)(c1cncc(F)c1)N1CCC2(CCOC2)C1 (centres undefined) | -14.3 |
| O=S(=O)(c1cncc(F)c1)N1CCC2(CCCCC2)C1 | -13 |

| SMILES | cytotoxicity at 70.5 h [%] |
| --- | --- |
| Cc1nc(CNC(=O)NCC2(C)CCCc3ccccc32)no1 (centres undefined) | 29.3 |
| CC(=O)Nc1ccc(SCC(O)COCc2ccc3c(c2)OCO3)cc1 (centres undefined) | -4.91 |
| CC1CS(=O)(=O)CCN1CCCc1ccc(C(F)(F)F)cc1 (centres undefined) | -10.6 |
| Clc1ccc(C(CNCc2cccnc2)n2cccn2)cc1 (centres undefined) | 24.3 |
| CCn1cc(CNCC(c2ccc(Cl)cc2)n2cccn2)cn1 (centres undefined) | -14.8 |
| Cc1cc(-n2c(C)cn(CN(C)CC3CC3)c2=O)no1 | -1.13 |
| COCCCN(Cc1ccncc1)c1ncc(C#N)cc1Cl | -0.375 |
| Cc1ccc(C2CSCCN2C(=O)c2ccccn2)cc1 (centres undefined) | -13.2 |
| CCc1ccccc1CNC(=O)CCc1cnn(C)c1 | -8.72 |
| CC(C)N1C(=O)CN(CCCO)CC1(C)C | -9.87 |
| COCCC1(C(=O)NCCc2nncn2C2CC2)CCC1 | -13.5 |
| CC(=O)N1CCC(Oc2ccc(C#N)cc2)CC1 | 9.28 |
| Cc1noc(CCNC(=O)c2ccc(Br)c(S(=O)(=O)N(C)C)c2)n1 | -4.79 |
| Cc1occc1C(=O)NCC(=O)N1CCC(COc2ccccc2)CC1 | -2.93 |
| CS(=O)(=O)N1CCC(C(=O)N2CCOc3ccccc32)CC1 | -5.71 |
| CC1CCN(C(=O)C2CCN(S(C)(=O)=O)CC2)c2ccccc21 (centres undefined) | -7.57 |
| Cc1nn(C)c(Cl)c1S(=O)(=O)N(CC(N)=O)CC(C)C | -16.6 |
| Cc1nn(C)c(C)c1S(=O)(=O)N(CC(N)=O)CC(C)C | -8.24 |
| NC(=O)C(Cc1ccccc1)NS(=O)(=O)Cc1ccccc1F (centres undefined) | -15 |
